# Measured values: PMC12951562, “SH2scan: Mapping SH2 Domain-Ligand Binding Selectivity for Inhibitors and Degraders” (Journal of Medicinal Chemistry, 2026)
# Where two headings read alike, the source gives them in different places. Non-standard residues stand in square brackets, D forms with d. Residues, ends and D or L forms follow the SMILES beside them. *: point of attachment. pY = N[C@@H](Cc1ccc(OP(=O)(O)O)cc1)C(=O)O; Caffeoyl = O=C(/C=C/c1ccc(O)c(O)c1)*
# Columns and labels:
# Test in all cases: biochemical
# Assay type in all cases: binding
# CISH = molecular target: T1, CISH (Homo sapiens, UniProt Q9NSE2); settings: for remaining activity at 10 µM: read-out: percent of DMSO vehicle control
# T1 construct: the DNA-tagged SH2 domain concentrations used in this study were <0.1 nM; made in house; host or cells: HEK293 (transient transfection; unpurified extract)
# T1 sequence (Q9NSE2 82-163 limits assumed): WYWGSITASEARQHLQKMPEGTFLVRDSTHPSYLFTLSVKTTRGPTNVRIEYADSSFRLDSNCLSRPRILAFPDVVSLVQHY
# TNS4 = molecular target: T2, TNS4 (Homo sapiens, UniProt Q8IZW8); settings: for remaining activity at 10 µM: read-out: percent of DMSO vehicle control
# T2 construct: made in house; host or cells: HEK293 (transient transfection), unpurified extract
# T2 sequence (Q8IZW8 19-715): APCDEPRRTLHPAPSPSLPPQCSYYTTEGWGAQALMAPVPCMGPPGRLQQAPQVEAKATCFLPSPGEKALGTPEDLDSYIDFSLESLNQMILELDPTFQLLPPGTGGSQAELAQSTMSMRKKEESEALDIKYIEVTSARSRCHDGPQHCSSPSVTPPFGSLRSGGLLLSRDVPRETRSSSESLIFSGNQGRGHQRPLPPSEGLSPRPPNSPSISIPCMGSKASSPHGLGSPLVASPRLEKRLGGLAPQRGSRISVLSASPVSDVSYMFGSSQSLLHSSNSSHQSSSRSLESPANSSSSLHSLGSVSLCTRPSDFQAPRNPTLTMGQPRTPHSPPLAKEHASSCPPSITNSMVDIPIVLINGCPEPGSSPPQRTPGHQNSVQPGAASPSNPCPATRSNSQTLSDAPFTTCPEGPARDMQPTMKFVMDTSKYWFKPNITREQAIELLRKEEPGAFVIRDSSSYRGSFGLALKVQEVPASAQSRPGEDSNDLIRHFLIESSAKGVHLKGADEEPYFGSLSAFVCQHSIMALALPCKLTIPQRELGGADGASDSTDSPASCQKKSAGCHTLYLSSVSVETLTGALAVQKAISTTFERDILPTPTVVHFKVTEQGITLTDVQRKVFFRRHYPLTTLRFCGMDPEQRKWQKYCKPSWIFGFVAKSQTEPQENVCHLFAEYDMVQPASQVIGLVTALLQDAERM
# TNS1 = molecular target: T3, TNS1 (Homo sapiens, UniProt Q9HBL0); settings: for remaining activity at 10 µM / percent of DMSO vehicle control at 10 µM: read-out: percent of DMSO vehicle control
# T3 construct: made in house; host or cells: HEK293 (transient transfection), unpurified extract
# TEC = molecular target: T4, TEC (Homo sapiens, UniProt P42680); settings: for remaining activity at 10 µM / percent of DMSO vehicle control at 10 µM: read-out: percent of DMSO vehicle control
# T4 construct: made in house; host or cells: HEK293 (transient transfection), unpurified extract
# T4 sequence (P42680 1-631): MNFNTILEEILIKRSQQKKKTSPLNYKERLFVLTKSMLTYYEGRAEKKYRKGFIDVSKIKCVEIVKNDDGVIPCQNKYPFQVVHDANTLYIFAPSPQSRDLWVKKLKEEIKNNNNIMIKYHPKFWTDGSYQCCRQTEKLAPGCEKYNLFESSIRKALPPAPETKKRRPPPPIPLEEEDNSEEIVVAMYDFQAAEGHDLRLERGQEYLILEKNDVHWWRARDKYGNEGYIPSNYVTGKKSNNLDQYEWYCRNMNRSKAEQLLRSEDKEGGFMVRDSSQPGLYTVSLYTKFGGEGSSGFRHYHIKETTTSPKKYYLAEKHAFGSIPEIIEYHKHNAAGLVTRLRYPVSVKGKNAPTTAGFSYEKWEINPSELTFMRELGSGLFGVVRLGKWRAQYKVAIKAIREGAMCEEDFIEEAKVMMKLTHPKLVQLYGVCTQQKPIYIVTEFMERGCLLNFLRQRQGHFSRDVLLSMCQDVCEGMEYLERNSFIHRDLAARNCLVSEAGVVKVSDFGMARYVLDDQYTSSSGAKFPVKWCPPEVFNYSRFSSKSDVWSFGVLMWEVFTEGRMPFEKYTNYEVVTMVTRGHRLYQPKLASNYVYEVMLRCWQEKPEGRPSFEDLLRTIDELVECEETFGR
# TNS2 = molecular target: T5, TNS2 (Homo sapiens, UniProt Q63HR2); settings: for remaining activity at 10 µM: read-out: percent of DMSO vehicle control
# T5 construct: made in house; host or cells: HEK293 (transient transfection), unpurified extract
# T5 sequence (Q63HR2 1-1409): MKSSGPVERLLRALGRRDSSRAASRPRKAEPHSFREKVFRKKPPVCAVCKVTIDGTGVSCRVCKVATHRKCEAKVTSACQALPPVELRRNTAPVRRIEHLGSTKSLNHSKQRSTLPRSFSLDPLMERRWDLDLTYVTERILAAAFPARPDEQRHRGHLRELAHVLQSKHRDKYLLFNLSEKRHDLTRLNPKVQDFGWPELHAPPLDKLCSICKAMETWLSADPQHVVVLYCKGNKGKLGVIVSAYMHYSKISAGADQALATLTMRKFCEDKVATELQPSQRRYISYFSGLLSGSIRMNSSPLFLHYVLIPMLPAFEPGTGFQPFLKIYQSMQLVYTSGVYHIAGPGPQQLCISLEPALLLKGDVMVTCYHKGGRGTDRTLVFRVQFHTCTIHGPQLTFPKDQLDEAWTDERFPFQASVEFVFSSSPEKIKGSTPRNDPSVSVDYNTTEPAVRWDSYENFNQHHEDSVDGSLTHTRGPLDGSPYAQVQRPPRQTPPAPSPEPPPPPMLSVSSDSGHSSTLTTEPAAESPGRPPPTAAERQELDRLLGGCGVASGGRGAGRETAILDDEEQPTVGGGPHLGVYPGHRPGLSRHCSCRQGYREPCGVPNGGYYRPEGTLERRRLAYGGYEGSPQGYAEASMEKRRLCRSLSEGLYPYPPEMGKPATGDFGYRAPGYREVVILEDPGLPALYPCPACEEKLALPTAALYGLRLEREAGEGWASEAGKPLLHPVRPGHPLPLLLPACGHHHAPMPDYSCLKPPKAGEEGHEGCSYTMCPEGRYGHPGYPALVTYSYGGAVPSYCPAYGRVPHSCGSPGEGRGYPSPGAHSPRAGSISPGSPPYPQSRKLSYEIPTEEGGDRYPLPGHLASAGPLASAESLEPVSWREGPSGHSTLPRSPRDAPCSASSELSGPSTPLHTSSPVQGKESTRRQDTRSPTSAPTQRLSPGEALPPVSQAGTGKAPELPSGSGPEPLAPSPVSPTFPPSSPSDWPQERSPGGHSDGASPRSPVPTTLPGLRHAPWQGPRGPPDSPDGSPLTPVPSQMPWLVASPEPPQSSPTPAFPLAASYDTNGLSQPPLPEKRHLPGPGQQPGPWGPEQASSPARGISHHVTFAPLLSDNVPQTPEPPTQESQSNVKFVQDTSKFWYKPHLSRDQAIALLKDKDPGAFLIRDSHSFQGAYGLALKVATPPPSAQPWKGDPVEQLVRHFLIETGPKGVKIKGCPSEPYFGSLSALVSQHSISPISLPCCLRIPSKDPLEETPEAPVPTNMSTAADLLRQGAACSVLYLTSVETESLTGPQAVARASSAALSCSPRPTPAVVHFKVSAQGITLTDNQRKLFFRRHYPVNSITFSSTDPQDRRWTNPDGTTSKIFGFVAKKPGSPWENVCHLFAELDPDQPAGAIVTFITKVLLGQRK
# T3 sequence (Q9HBL0 whole entry): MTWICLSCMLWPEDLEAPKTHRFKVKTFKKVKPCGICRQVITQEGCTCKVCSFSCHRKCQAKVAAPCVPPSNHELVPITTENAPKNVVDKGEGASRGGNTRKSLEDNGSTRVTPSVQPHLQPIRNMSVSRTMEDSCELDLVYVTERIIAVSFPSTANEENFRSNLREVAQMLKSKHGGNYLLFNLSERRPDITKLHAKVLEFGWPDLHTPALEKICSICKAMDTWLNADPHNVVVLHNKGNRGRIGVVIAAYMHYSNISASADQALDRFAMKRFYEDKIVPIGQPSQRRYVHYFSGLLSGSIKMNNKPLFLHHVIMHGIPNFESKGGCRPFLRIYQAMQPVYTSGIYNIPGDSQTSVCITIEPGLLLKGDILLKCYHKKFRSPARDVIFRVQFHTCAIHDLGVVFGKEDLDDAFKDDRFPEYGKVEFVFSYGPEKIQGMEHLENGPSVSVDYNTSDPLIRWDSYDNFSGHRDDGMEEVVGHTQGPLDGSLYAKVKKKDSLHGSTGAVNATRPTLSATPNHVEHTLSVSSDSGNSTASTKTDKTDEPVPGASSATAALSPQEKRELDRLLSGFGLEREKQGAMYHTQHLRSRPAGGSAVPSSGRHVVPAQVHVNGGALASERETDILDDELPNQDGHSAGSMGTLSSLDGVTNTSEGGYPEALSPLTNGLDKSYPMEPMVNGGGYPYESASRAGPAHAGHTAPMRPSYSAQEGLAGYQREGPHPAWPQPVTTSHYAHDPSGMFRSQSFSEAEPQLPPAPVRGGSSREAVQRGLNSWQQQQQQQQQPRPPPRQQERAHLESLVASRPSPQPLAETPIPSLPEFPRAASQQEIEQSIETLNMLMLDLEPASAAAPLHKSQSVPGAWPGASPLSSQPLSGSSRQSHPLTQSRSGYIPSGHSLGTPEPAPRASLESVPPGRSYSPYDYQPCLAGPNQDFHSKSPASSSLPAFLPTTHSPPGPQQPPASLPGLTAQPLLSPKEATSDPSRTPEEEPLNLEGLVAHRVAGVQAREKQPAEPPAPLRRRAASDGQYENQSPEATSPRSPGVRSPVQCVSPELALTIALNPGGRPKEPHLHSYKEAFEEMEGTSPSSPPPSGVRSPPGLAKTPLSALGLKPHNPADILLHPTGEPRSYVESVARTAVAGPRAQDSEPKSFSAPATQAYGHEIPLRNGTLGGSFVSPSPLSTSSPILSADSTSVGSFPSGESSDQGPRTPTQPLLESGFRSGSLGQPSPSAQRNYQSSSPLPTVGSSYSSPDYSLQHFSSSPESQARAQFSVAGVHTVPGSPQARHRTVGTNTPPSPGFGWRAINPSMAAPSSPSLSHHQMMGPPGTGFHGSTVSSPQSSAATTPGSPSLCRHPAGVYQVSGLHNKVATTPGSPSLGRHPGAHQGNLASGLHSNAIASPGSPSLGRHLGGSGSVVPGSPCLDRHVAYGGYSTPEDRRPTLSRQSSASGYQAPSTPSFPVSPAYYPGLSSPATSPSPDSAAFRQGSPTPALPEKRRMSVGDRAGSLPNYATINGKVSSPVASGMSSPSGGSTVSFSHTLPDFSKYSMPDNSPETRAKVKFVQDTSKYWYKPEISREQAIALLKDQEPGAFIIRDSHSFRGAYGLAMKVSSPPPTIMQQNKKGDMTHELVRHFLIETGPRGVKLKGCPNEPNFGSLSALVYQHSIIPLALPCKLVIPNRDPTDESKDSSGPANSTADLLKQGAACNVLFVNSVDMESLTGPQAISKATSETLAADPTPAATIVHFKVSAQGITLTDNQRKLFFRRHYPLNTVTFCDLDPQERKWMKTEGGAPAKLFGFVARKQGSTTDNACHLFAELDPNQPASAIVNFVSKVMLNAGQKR
Structure (SMILES),"Kd (CISH; dose-response, read-out: KD) [µM]","remaining activity at 10 µM (CISH; primary screen, 10 μM) [%]",KD (TNS4; dose-response),"remaining activity at 10 µM (TNS4; primary screen, 10 μM) [%]","remaining activity at 10 µM (TNS1; primary screen, 10 μM) [%]","remaining activity at 10 µM (TEC; primary screen, 10 μM) [%]","remaining activity at 10 µM (TNS2; primary screen, 10 μM) [%]",remaining activity at 10 µM (CISH) [%],Kd (TNS4) [µM],remaining activity at 10 µM (TNS4) [%],Kd (TNS1) [µM],percent of DMSO vehicle control at 10 µM (TNS1) [%],percent of DMSO vehicle control at 10 µM (TEC) [%],Kd (TNS2) [µM],remaining activity at 10 µM (TNS2) [%],also measured
O=C(CCl)Nc1cccc(CNC(=O)[C@H](Cc2ccc(OP(=O)(O)O)cc2)NC(=O)Cc2ccc(F)cc2)c1 [MN551],0.046,3.2 ± 4.3,No Hit,25.9,134,120,74.1 ± 2.1,,,,,,,,,
CC[C@H](C)[C@H](NC(=O)[C@H](CCC(=O)O)NC(=O)[C@H](CCC(=O)O)NC(=O)[C@H](Cc1ccc(OP(=O)(O)O)cc1)NC(=O)/C=C/c1ccc(O)c(O)c1)C(=O)N[C@@H](CCC(=O)O)C(=O)O [Caffeic acid-pYEEIE] (Caffeoyl-[pY]EEIE-OH),,,,,,,,4.9 ± 6.9,2.6 ± 0.74,3.1 ± 0.7,3.8 ± 0.61,25.5 ± 1.1,0.1,4.3 ± 2.5,4.8 ± 1.3,Kd (CISH): 0.43 ± 0.98 µM; Kd (TEC): 0.039 ± 0.0078 µM
C/C(=C\C(=O)N[C@H](C(=O)N1CCC[C@H]1C(=O)N(c1ccccc1)c1ccc(I)cc1)C(C)(C)C)c1ccc(OP(=O)(O)O)cc1 [STAT6-IN-1],3.6 ± 0.64,1.6 ± 2.3,,14 ± 3.4,87.6 ± 10,75.1 ± 3.7,55.9 ± 0.4,,,,,,,,,"Kd (TNS4; dose-response, read-out: KD): 1.8 ± 0.42 µM"
O=C(COc1ccc2cc(C(=O)Nc3ccccc3)ccc2c1)NCc1ccc(OP(=O)(O)O)c(OP(=O)(O)O)c1 [Stafib-1],3.9 ± 8.5,1.7 ± 2.3,No Hit,32.7,132,159,86 ± 8.8,,,,,,,,,
CC[C@H](C)[C@H](NC(=O)[C@H](CO)NC(=O)[C@H](CC(C)C)NC(=O)[C@H](CCCNC(=N)N)NC(=O)[C@H](CO)NC(=O)[C@H](CS)NC(C)=O)C(=O)N[C@@H](Cc1ccc(OP(=O)(O)O)cc1)C(=O)N[C@@H](CC(=O)O)C(=O)N[C@@H](CC(N)=O)C(=O)N[C@H](C(=O)N1CCC[C@H]1C(=O)NCC(N)=O)C(C)C [Ac-CSRLSIpYDNVPG-NH2] (Ac-CSRLSI[pY]DNVPG-NH2),,,,,,,,,0.0283 ± 0.00496,,1.35 ± 0.53,,,0.466 ± 0.45,,
CC[C@H](C)[C@H](NC(=O)[C@H](CCC(=O)O)NC(=O)[C@H](CCC(=O)O)NC(=O)[C@H](Cc1ccc(OP(=O)(O)O)cc1)NC(C)=O)C(=O)N[C@@H](CCC(=O)O)C(N)=O [Ac-pYEEIE-NH2] (Ac-[pY]EEIE-NH2),,,,,,,,,,,,,,,,"percent of DMSO vehicle control (CISH; primary screen, 10 μM): 131.9%; percent of DMSO vehicle control (TNS4; primary screen, 10 μM): 61.9±0.0%; percent of DMSO vehicle control (TNS1; primary screen, 10 μM): 161.1%; percent of DMSO vehicle control (TEC; primary screen, 10 μM): 119.3%; percent of DMSO vehicle control (TNS2; primary screen, 10 μM): 104.0%"
NC(=O)CC[C@H](NC(=O)[C@@H]1CC[C@@H]2CCN(C(=O)CCCCCC#Cc3cccc4c3CN(C3CCC(=O)NC3=O)C4=O)C[C@H](NC(=O)c3cc4cc(C(F)(F)P(=O)(O)O)ccc4[nH]3)C(=O)N21)C(=O)NC(c1ccccc1)c1ccccc1 (stereo partly shown) [SD-36],,,,,,,,42.8 ± 5.7,,58.1 ± 8.9,,112.9 ± 1,121 ± 3,,65.4 ± 3.3,
CC(C)(C)[C@H](NC(=O)/C=C/c1ccc(OP(=O)(O)O)cc1)C(=O)N1CCC[C@H]1C(=O)N(c1ccccc1)c1ccc(I)cc1 [STAT6-IN-3],4.2 ± 1.1,26.8 ± 11.8,No Hit,21.6 ± 25.3,88.4 ± 24.5,136 ± 22.9,86.8 ± 7.1,,,,,,,,,
CC(=O)N[C@@H](Cc1ccc(CP(=O)(O)O)cc1)C(=O)NC1(C(=O)N[C@@H](CC(N)=O)C(=O)NCCCc2c(O)ccc3ccccc23)CCCCC1 [CGP78850],,,,,,,,117 ± 15.1,0.508,5 ± 1.1,0.408,16.4 ± 0.3,126.5 ± 0.2,1.2,16,
CC(=O)N1CC[C@H]2CC[C@@H](C(=O)N[C@@H](CCC(N)=O)C(=O)NC(c3ccccc3)c3ccccc3)N2C(=O)[C@@H](NC(=O)c2cc3cc(C(F)(F)P(=O)(O)O)ccc3[nH]2)C1 [SI-109],,,,,,,,102,,110,,152,135,,126,
